What was measured:
Type in all cases: physicochemical
[1] = Stabilities of the emulsions according to the added concentrations of the azacycloalkane derivative (Referential Experiment 2); conditions: for Observation after 3 days standing / Observation after 7 days standing: room temperature
Protocol: Each 5 ml of a 1% (W/V) solution preliminarily prepared by dissolving dipotassium glycyrrhizate in distilled water was poured in each of eight 10 ml size test tubes, and thereto was added 1-[2-(decylthio)ethyl] azacyclopentane-2-one selected from the azacycloalkane derivatives so as to make a concentration ranging from 0 to 10%. Then the mixture was agitated for 1 minute using Biomixer (NIHON SEIKI SEISAKUSHO) at 15,000 rpm to prepare each emulsion. The state of dispersion just after the preparation, or after 3 days or 7 days standing at room temperature was observed.

[2] = Turbidity just after preparation (absorbance at 650 nm) as index of emulsifiability (Referential Experiment 1); conditions: for Turbidity (650 nm): just after preparation
Protocol: (§1) […] The mixutre was agitated under 15,000 rpm for 1 minute by Biomixer (NIHON SEIKI SEISAKUSHO) to prepare each emulsion. The state of dispersion just after the preparation and after 3 days standing at room temperature was observed. The turbidity just after the preparation was measured by absorbance at 650 nm, and used as the index of emulsifiability.

[3] = State of dispersion of emulsions of 1-[2-(decylthio)ethyl]azacyclopentan-2-one made with three emulsifying agents (Referential Experiment 1)
Protocol: Using 1-[2-(decylthio)ethyl]azacyclopentan-2-one selected from the azacycloalkane derivatives, and three emulsifying agents hereinbelow, emulsifiabilities and stabilities of the emulsions were examined.
as §1

[4] = azacycloalkane 10.0 % in 1% dipotassium glycyrrhizate

## CCCCCCCCCCSCCN1CCCC1=O [1-[2-(decylthio)ethyl]azacyclopentane-2-one]
[1]; azacycloalkane 0.01 % in 1% dipotassium glycyrrhizate
  Observation just after preparation: Colorless clear
[1]; azacycloalkane 0.01% to 10% at 1% dipotassium glycyrrhizate
  Emulsification and emulsion stability: good emulsification and gave stable emulsion
[1]; azacycloalkane 0.01 %
  Observation after 3 days standing: Colorless clear
  Observation after 7 days standing: Colorless clear
[1]; azacycloalkane 0.1 % in 1% dipotassium glycyrrhizate
  Observation just after preparation: Colorless clear
[1]; azacycloalkane 0.1 %
  Observation after 3 days standing: Colorless clear
  Observation after 7 days standing: Colorless clear
[1]; azacycloalkane 0.5 % in 1% dipotassium glycyrrhizate
  Observation just after preparation: Colorless clear
[1]; azacycloalkane 0.5 %
  Observation after 3 days standing: Colorless clear
  Observation after 7 days standing: Colorless clear
[1]; azacycloalkane 1.0 % in 1% dipotassium glycyrrhizate
  Observation just after preparation: White clear
[1]; azacycloalkane 1.0 %
  Observation after 3 days standing: White clear
  Observation after 7 days standing: White clear
[1]; azacycloalkane 2.0 % in 1% dipotassium glycyrrhizate
  Observation just after preparation: White clear
[1]; azacycloalkane 2.0 %
  Observation after 3 days standing: White clear
  Observation after 7 days standing: White clear
[1]; azacycloalkane 5.0 % in 1% dipotassium glycyrrhizate
  Observation just after preparation: White emulsified
[1]; azacycloalkane 5.0 %
  Observation after 3 days standing: White emulsified
  Observation after 7 days standing: White emulsified
[1]; [4]
  Observation just after preparation: White emulsified
  Observation after 3 days standing: White emulsified
  Observation after 7 days standing: White emulsified

## CC1(C)[C@@H](O[C@H]2O[C@H](C(=O)[O-])[C@@H](O)[C@H](O)[C@H]2O[C@@H]2O[C@H](C(=O)[O-])[C@@H](O)[C@H](O)[C@H]2O)CC[C@]2(C)[C@H]3C(=O)C=C4[C@@H]5C[C@@](C)(C(=O)O)CC[C@]5(C)CC[C@@]4(C)[C@]3(C)CC[C@@H]12.[K+].[K+] [dipotassium glycyrrhizate]
[2]; emulsifying agent 0.1 %
  Turbidity (650 nm): 1.284
[2]; emulsifying agent 0.5 %
  Turbidity (650 nm): 0.459
[2]; emulsifying agent 1.0 %
  Turbidity (650 nm): 0.437
[2]; emulsifying agent 2.0 %
  Turbidity (650 nm): 0.405
[2]; emulsifying agent 3.0 %
  Turbidity (650 nm): 0.346
[2]; emulsifying agent 4.0 %
  Turbidity (650 nm): 0.006
[2]; emulsifying agent 5.0 %
  Turbidity (650 nm): 0.006
[2]; same concentration level
  Turbidity as index of emulsifiability, compared with HCO-60 and polysorbate 80: stronger emulsifiability
[3]; emulsifying agent 0.5 %
  Just after preparation (state of dispersion): White clear
[3]; emulsifying agent 1.0 %
  Just after preparation (state of dispersion): White clear
[3]; emulsifying agent 2.0 %
  Just after preparation (state of dispersion): White clear
[3]; emulsifying agent 3.0 %
  Just after preparation (state of dispersion): White clear
[3]; emulsifying agent at 0.1-5 %
  Emulsification: good emulsification
[3]; emulsifying agent at 4-5 %
  Dissolution: full dissolution

From US5407911A, “Parathyroid hormone-containing emulsion for nasal administration” (Asahi Kasei Kogyo Kabushiki Kaisha, priority 1991, dated 1995)
